What was measured:
P388 = assay: Cytotoxicity against mouse P388 cells at 10 uM/L; format: functional; details: read-out: GI
A549 = assay: Cytotoxicity against human A549 cells at 10 uM/L; format: functional; details: read-out: GI

Compound | inhibition of growth at 10 µM (P388) | inhibition of growth at 10 µM (A549)
C=C1C(=O)O[C@@H]2[C@@H]1C[C@H]1O[C@]1(CO)CC/C=C(\C)CC/C=C(\C)[C@@H]2O [SINULAROLIDE C] | 63.8% | 
C=C1C(=O)O[C@@H]2[C@@H]1C[C@H]1O[C@]1(CO)CC/C=C(\C)CC/C=C(\C)[C@H]2O [SINULAROLIDE B] | 100% | 
C=C1C(=O)O[C@@H]2[C@@H]1C/C=C(\CO)CC/C=C(\C)CC/C=C(\C)[C@H]2O [PRESINULAROLIDE B] |  | 64%
C=C1C(=O)O[C@H]2C/C(C)=C/CC/C(C)=C/CC/C(CO)=C/C[C@H]12 [3-DEHYDROXYLPRESINULAROLIDE B] | 100% | 95.7%
